Results as given in patent US9238639B2, “Aromatic ring compound” (TAKEDA PHARMACEUTICAL COMPANY LIMITED, priority 2012, dated 2016).

Biological target: T1, human GOAT (Homo sapiens, UniProt Q96T53)
T1 construct: made in house; host or cells: Sf9 insect cells (BacToBac baculovirus, pFastBac1 vector); microsome fraction
T1 sequence (Q96T53 1-435): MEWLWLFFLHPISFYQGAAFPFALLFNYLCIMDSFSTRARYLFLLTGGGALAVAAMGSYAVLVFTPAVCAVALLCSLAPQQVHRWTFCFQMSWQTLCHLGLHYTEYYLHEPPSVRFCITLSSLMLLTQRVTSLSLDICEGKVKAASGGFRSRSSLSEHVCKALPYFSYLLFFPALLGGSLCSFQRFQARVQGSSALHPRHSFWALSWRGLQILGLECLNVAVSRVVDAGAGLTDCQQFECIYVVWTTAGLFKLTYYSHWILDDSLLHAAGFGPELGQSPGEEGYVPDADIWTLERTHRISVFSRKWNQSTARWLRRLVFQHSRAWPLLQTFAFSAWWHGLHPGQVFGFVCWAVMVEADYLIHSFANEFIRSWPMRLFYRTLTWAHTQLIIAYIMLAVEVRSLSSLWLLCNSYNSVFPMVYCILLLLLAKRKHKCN
Experiment: GOAT enzyme activity measurement by HTRF method (human GOAT-expressing microsome fraction)
Format: biochemical
Settings: 10 μM compound; human GOAT-expressing Sf9 microsome fraction; octanoyl-CoA and Ghrelin-biotin substrates; 0% control without compound, 100% control without enzyme
Method: Human GOAT (Accession NO: EU518495) cDNA was amplified by PCR including reaction of (1) 98° C., 1 min, (2) 35 repeats of 98° C., 10 sec·65° C., 15 sec·72° C., 80 sec, and (3) 72° C., 5 min, using human stomach cDNA library (Takara Bio) as a template and Pyrobest DNA Polymerase (Takara Bio). The amplified fragment was treated with restriction enzymes, inserted into Stu I/Not I sites of pFastBacl (Invitrogen) by using Ligation High (TOYOBO), and transfected into ECOS JM109 (Nippon Gene) to construct pFB/hGOAT.
Production of Baculovirus and Preparation of Insect Cell Microsome Fraction
For preparation of baculovirus from pFB/hGOAT, BacToBac baculovirus expression system (Invitrogen) was used. The virus titer was measured by Real-Time PCR using SYBR Green (Takara Bio). Sf9 cells were infected with the obtained baculovirus at Multiplicity of Infection (MOI)=0.2, and cultured for 70 hr. The Sf9 cells were recovered, suspended in a suspension buffer (TBS (0.3 M NaCl), 1 mM DTT, 1 mM EDTA, Complete (Roche) (1 tablet/50 mL)), and the cells were disrupted twice on ice at 20000 rpm, 30 sec using a polytron homogenizer. The cell disruption solution was centrifuged at 1000 rpm for 10 min at 4° C., the supernatant was further ultracentrifuged at 40000 rpm for 30 min at 4° C. and the precipitate was recovered. The obtained precipitate was suspended in the suspension buffer used above to give a human GOAT-expressing microsome fraction. The protein level was measured using BCA Protein assay Reagent (PIERCE).
Enzyme Activity Measurement by HTRF Method
A compound solution (2 μL) diluted with an assay buffer containing 50 mM Tris-HCl (pH 7.5), 0.5% TWEEN20, and Complete to 15% DMSO and 90 μg/mL human GOAT-expressing microsome fraction (2 μL) were incubated at room temperature for 20 min, after which a substrate mixed solution (2 μL) containing 30 μM octanoyl-CoA (CHEM-IMPLEX) and 3 μM Ghrelin-biotin ([…]epsilon aminocaproic acid-biotin (Greiner Coutom synthesis)) was added to 384 white small volume plate (Greiner). After reaction for 20 min, 2 μL of citrate buffer (pH3) (mixed solution of 0.1 M citric acid (39.8 mL) and 0.2 M Na2HPO4 (10.2 mL)), 2 μL of 25 nM anti-active ghrelin antibody (produced in mouse), 5 μL of Eu(K)-Anti Mouse IgG Pab (Cis Bio) 100-fold diluted with HTRF detection buffer (Cis Bio) and 5 μL of streptavidin-Xlent (Cis Bio) 66.6-fold diluted with HTRF detection buffer (Cis Bio) were added. After incubation at room temperature for 1 hr or longer, the fluorescence values at 620 nm and 665 nm were measured by Envision (PerkinElmer). The data was calculated [(665 nm signal/620 nm signal)×10^4], and the inhibitory activity against human GOAT was shown by the data where 0% control was without compound, and 100% control was without enzyme.

| SMILES | inhibition at 10 µM [%] |
| --- | --- |
| Cn1nc(C(F)(F)F)cc1COc1ccc2c(CC(=O)O)csc2c1 [Example 18, (6-((1-Methyl-3-(trifluoromethyl)-1H-pyrazol-5-yl)methoxy)-1-benzothiophen-3-yl)acetic acid] | 98.2 |
| COC(=O)Cc1csc2cc(OCc3cc(C(F)(F)F)nn3C)cc(Cl)c12 [Example 21, Methyl(4-chloro-6-((1-methyl-3-(trifluoromethyl)-1H-pyrazol-5-yl)methoxy)-1-benzothiophen-3-yl)acetate] | 100 |
| Cn1nc(C(F)(F)F)cc1COc1cc(Cl)c2c(CC(=O)O)csc2c1 [Example 22, (4-Chloro-6-((1-methyl-3-(trifluoromethyl)-1H-pyrazol-5-yl)methoxy)-1-benzothiophen-3-yl)acetic acid] | 105 |
| COC(=O)Cc1csc2c(C)c(OCc3ccc(C(F)(F)F)nc3C)cc(C)c12 [Example 23, Methyl(4,7-dimethyl-6-((2-methyl-6-(trifluoromethyl)pyridin-3-yl)methoxy)-1-benzothiophen-3-yl)acetate] | 62.8 |
| Cc1nc(C(F)(F)F)ccc1COc1cc(C)c2c(CC(=O)O)csc2c1C [Example 24, (4,7-Dimethyl-6-((2-methyl-6-(trifluoromethyl)pyridin-3-yl)methoxy)-1-benzothiophen-3-yl)acetic acid] | 105 |
| COC(=O)Cc1csc2cc(OCc3cc(C)nn3C)cc(Cl)c12 [Example 25, Methyl(4-chloro-6-((1,3-dimethyl-1H-pyrazol-5-yl)methoxy)-1-benzothiophen-3-yl)acetate] | 97.4 |
| Cc1cc(COc2cc(Cl)c3c(CC(=O)O)csc3c2)n(C)n1 [Example 26, (4-Chloro-6-((1,3-dimethyl-1H-pyrazol-5-yl)methoxy)-1-benzothiophen-3-yl)acetic acid] | 105 |
| COC(=O)Cc1csc2c(Cl)c(OCc3cc(C(F)(F)F)nn3C)cc(Cl)c12 [Example 27, Methyl(4,7-dichloro-6-((1-methyl-3-(trifluoromethyl)-1H-pyrazol-5-yl)methoxy)-1-benzothiophen-3-yl)acetate] | 92.7 |
| Cn1nc(C(F)(F)F)cc1COc1cc(Cl)c2c(CC(=O)O)csc2c1Cl [Example 28, (4,7-Dichloro-6-((1-methyl-3-(trifluoromethyl)-1H-pyrazol-5-yl)methoxy)-1-benzothiophen-3-yl)acetic acid] | 105 |
| COC(=O)Cc1csc2c(Cl)c(OCc3ccc(C(F)(F)F)nc3C)cc(Cl)c12 [Example 29, Methyl(4,7-dichloro-6-((2-methyl-6-(trifluoromethyl)pyridin-3-yl)methoxy)-1-benzothiophen-3-yl)acetate] | 88.1 |
| Cc1nc(C(F)(F)F)ccc1COc1cc(Cl)c2c(CC(=O)O)csc2c1Cl [Example 30, (4,7-Dichloro-6-((2-methyl-6-(trifluoromethyl)pyridin-3-yl)methoxy)-1-benzothiophen-3-yl)acetic acid] | 106 |
| Cc1ccc(COc2cc(C(F)(F)F)c3c(CC(=O)O)csc3c2)c(C)n1 [Example 31, (6-((2,6-Dimethylpyridin-3-yl)methoxy)-4-(trifluoromethyl)-1-benzothiophen-3-yl)acetic acid] | 103 |
| Cn1nc(C(F)(F)F)cc1COc1cc(C(F)(F)F)c2c(CC(=O)O)csc2c1 [Example 32, (6-((1-Methyl-3-(trifluoromethyl)-1H-pyrazol-5-yl)methoxy)-4-(trifluoromethyl)-1-benzothiophen-3-yl)acetic acid] | 103 |
| COC(=O)Cc1csc2c(F)c(OCc3cc(C(F)(F)F)nn3C)cc(C)c12 [Example 33, Methyl(7-fluoro-4-methyl-6-((1-methyl-3-(trifluoromethyl)-1H-pyrazol-5-yl)methoxy)-1-benzothiophen-3-yl)acetate] | 96.1 |
| Cc1cc(OCc2cc(C(F)(F)F)nn2C)c(F)c2scc(CC(=O)O)c12 [Example 34, (7-Fluoro-4-methyl-6-((1-methyl-3-(trifluoromethyl)-1H-pyrazol-5-yl)methoxy)-1-benzothiophen-3-yl)acetic acid] | 104 |
| COC(=O)Cc1csc2c(F)c(OCc3ccc(C(F)(F)F)nc3C)cc(C)c12 [Example 35, Methyl(7-fluoro-4-methyl-6-((2-methyl-6-(trifluoromethyl)pyridin-3-yl)methoxy)-1-benzothiophen-3-yl)acetate] | 94 |
| Cc1nc(C(F)(F)F)ccc1COc1cc(C)c2c(CC(=O)O)csc2c1F [Example 36, (7-Fluoro-4-methyl-6-((2-methyl-6-(trifluoromethyl)pyridin-3-yl)methoxy)-1-benzothiophen-3-yl)acetic acid] | 106 |
| COC(=O)Cc1csc2c(F)c(OCc3cc(C(F)(F)F)nn3C)cc(Cl)c12 [Example 37, Methyl(4-chloro-7-fluoro-6-((1-methyl-3-(trifluoromethyl)-1H-pyrazol-5-yl)methoxy)-1-benzothiophen-3-yl)acetate] | 98.9 |
| Cn1nc(C(F)(F)F)cc1COc1cc(Cl)c2c(CC(=O)O)csc2c1F [Example 38, (4-Chloro-7-fluoro-6-((1-methyl-3-(trifluoromethyl)-1H-pyrazol-5-yl)methoxy)-1-benzothiophen-3-yl)acetic acid] | 107 |
| COC(=O)Cc1csc2c(F)c(OCc3ccc(C(F)(F)F)nc3C)cc(Cl)c12 [Example 39, Methyl(4-chloro-7-fluoro-6-((2-methyl-6-(trifluoromethyl)pyridin-3-yl)methoxy)-1-benzothiophen-3-yl)acetate] | 88.6 |
| Cc1nc(C(F)(F)F)ccc1COc1cc(Cl)c2c(CC(=O)O)csc2c1F [Example 40, (4-Chloro-7-fluoro-6-((2-methyl-6-(trifluoromethyl)pyridin-3-yl)methoxy)-1-benzothiophen-3-yl)acetic acid] | 106 |
| O=C(O)Cc1coc2c(Cl)c(OCc3ccc(Cl)cc3Cl)ccc12 [Example 42, (7-Chloro-6-((2,4-dichlorobenzyl)oxy)-1-benzofuran-3-yl)acetic acid] | 100 |
| COC(=O)Cc1coc2c(C)c(OCc3ccc(C)nc3C)cc(C)c12 [Example 43, Methyl(6-((2,6-dimethylpyridin-3-yl)methoxy)-4,7-dimethyl-1-benzofuran-3-yl)acetate] | 92.7 |
| Cc1ccc(COc2cc(C)c3c(CC(=O)O)coc3c2C)c(C)n1 [Example 44, (6-((2,6-Dimethylpyridin-3-yl)methoxy)-4,7-dimethyl-1-benzofuran-3-yl)acetic acid] | 102 |
| COC(=O)Cc1coc2c(C)c(OCc3ccc(Cl)cc3Cl)cc(C)c12 [Example 45, Methyl(6-((2,4-dichlorobenzyl)oxy)-4,7-dimethyl-1-benzofuran-3-yl)acetate] | 68.7 |
| Cc1c(OCc2ccc(Cl)cc2Cl)cc(C)c2c(CC(=O)O)coc12 [Example 46, (6-((2,4-Dichlorobenzyl)oxy)-4,7-dimethyl-1-benzofuran-3-yl)acetic acid] | 103 |
| O=C(O)CC1CSc2cc(OCc3ccc(Cl)cc3Cl)ccc21 (stereo not drawn) [Example 50, (6-((2,4-Dichlorobenzyl)oxy)-2,3-dihydro-1-benzothiophen-3-yl)acetic acid] | 99 |
